Assay results published in patent publication US20090042810A1, “AMPK Deficient Animals, Screening Methods, And Related Therapeutics And Diagnostics” (GenExel-Sein, Inc., priority 2007, published 2009).
“Also recorded” adds a separate entry of the source. One block for each molecule: values may come before it.

What was measured:
[1] = test system: Drosophila S2 cells; assay: Energy deprivation-induced MRLC phosphorylation in Drosophila S2 cells (immunoblot); type: cell-based; details: 50 mM 2DG for 4 hr
[2] = test system: LS174T cells; assay: Polarization of LS174T cells (actin, polarity markers, brush border); type: cell-based, human
[3] = test system: LS174T cells; assay: AMPK and MRLC phosphorylation in LS174T cells (immunoblot / immunostaining); type: cell-based, human
[4] = test system: AMPK holoenzyme purified from rat liver; assay: In vitro kinase assay, AMPK holoenzyme purified from rat liver with GST-MRLC / GST-ACC2 substrates; type: biochemical; details: 0.3 mM AMP; for Phosphorylation of MRLC by AMPK in presence of inhibitor (32P autoradiography): 10 μM drug added to reaction mixture, GST-MRLC substrate
Description: (§1) Fly strains. AMPK^D1 and AMPKD2 lines were generated by imprecise excision (Lee, et al., FEBS Lett. 550, 5-10 (2003)) of AMPK^G505 line (GenExel Inc.). UAS constructs were microinjected into w^1118 embryos. LKB1- and MRLC-mutant lines were described previously (Jordan et al., J. Cell Biol. 139, 1805-1819 (1997); (Karess et al., Cell 65, 1177-1189 (1991); (Lee et al., Cell Death Differ. 13, 110-1122 (2006)). Other lines were obtained from the Bloomington Stock Center. Microscopic analyses of Drosophila tissues. Dark field, phase contrast, and SEM analyses were performed to visualize embryonic cuticle structure. Immunostaining with various antibodies were performed to visualize embryonic epithelial structure. Brain squash preparation was used to analyze genomic integrity. Kinase assays. Phosphotransferase activities were determined in a reaction mixture consisting of HEPES-Brij Buffer, ATP (γ-^32P), and protein substrates. Protein levels were visualized by immunoblot or Coomassie staining. Phosphorylated proteins were visualized by phospho-specific immunoblot or ^32P-autoradiography. Incorporated phosphates were quantified using P81 filter binding assay. Drosophila strains. The AMPK^G505 fly line with an EP-element inserted at the AMPK locus was obtained from the Genisys Collection of EP lines (GenExel Inc., Korea), and subjected to standard imprecise excision (Lee, et al., FEBS Lett. 550, 5-10 (2003); (Lee et al., Cell Death Differ. 13, 110-1122 (2006)). HA-tagged AMPK (AMPK^WT) and its mutant forms (AMPK^KR, AMPK^TA and AMPK^TD) were subcloned into the pUAST vector and microinjected into w^1118 embryos. LKB1^X5, UAS-LKB1, spaghetti-squash^1 (sqh^1), and MRLC^EE (also referred to as sqh^EE) lines were described previously (Jordan et al., J. Cell Biol. 139, 1805-1819 (1997); (Karess et al., Cell 65, 1177-1189 (1991); (Lee et al., Cell Death Differ. 13, 110-1122 (2006)). […] Deletion sites of AMPK^D1 and AMPK^D2 were determined by genomic-PCR analyses. […]

[5] = test system: Drosophila AMPK (dAMPK); assay: In vitro kinase assay, immunoprecipitated Drosophila AMPK with MRLC substrate; type: biochemical; details: 10 μM drug added to reaction solution
Description: as §1, with “strains.” for “strains. The AMPK^G505 fly line with an EP-element inserted at the AMPK locus was obtained from the Genisys Collection of EP lines (GenExel Inc., Korea), and subjected to standard imprecise excision (Lee, et al., FEBS Lett. 550, 5-10 (2003); (Lee et al., Cell Death Differ. 13, 110-1122 (2006)). HA-tagged AMPK (AMPK^WT) and its mutant forms (AMPK^KR, AMPK^TA and AMPK^TD) were subcloned into the pUAST vector and microinjected into w^1118 embryos. LKB1^X5, UAS-LKB1, spaghetti-squash^1 (sqh^1), and MRLC^EE (also referred to as sqh^EE) lines were described previously (Jordan et al., J. Cell Biol. 139, 1805-1819 (1997); (Karess et al., Cell 65, 1177-1189 (1991); (Lee et al., Cell Death Differ. 13, 110-1122 (2006)).”

[6] = test system: human AMPK (hAMPK); assay: In vitro kinase assay, immunoprecipitated human AMPK with MRLC substrate; type: biochemical; details: 10 μM drug added to reaction solution
Description: as §1, with “strains.” for “strains. The AMPK^G505 fly line with an EP-element inserted at the AMPK locus was obtained from the Genisys Collection of EP lines (GenExel Inc., Korea), and subjected to standard imprecise excision (Lee, et al., FEBS Lett. 550, 5-10 (2003); (Lee et al., Cell Death Differ. 13, 110-1122 (2006)). HA-tagged AMPK (AMPK^WT) and its mutant forms (AMPK^KR, AMPK^TA and AMPK^TD) were subcloned into the pUAST vector and microinjected into w^1118 embryos. LKB1^X5, UAS-LKB1, spaghetti-squash^1 (sqh^1), and MRLC^EE (also referred to as sqh^EE) lines were described previously (Jordan et al., J. Cell Biol. 139, 1805-1819 (1997); (Karess et al., Cell 65, 1177-1189 (1991); (Lee et al., Cell Death Differ. 13, 110-1122 (2006)).”

[7] = test system: human MLCK; assay: In vitro kinase assay, active MLCK with MRLC substrate; type: biochemical; details: 10 μM drug added to reaction solution
Description: as §1, with “strains.” for “strains. The AMPK^G505 fly line with an EP-element inserted at the AMPK locus was obtained from the Genisys Collection of EP lines (GenExel Inc., Korea), and subjected to standard imprecise excision (Lee, et al., FEBS Lett. 550, 5-10 (2003); (Lee et al., Cell Death Differ. 13, 110-1122 (2006)). HA-tagged AMPK (AMPK^WT) and its mutant forms (AMPK^KR, AMPK^TA and AMPK^TD) were subcloned into the pUAST vector and microinjected into w^1118 embryos. LKB1^X5, UAS-LKB1, spaghetti-squash^1 (sqh^1), and MRLC^EE (also referred to as sqh^EE) lines were described previously (Jordan et al., J. Cell Biol. 139, 1805-1819 (1997); (Karess et al., Cell 65, 1177-1189 (1991); (Lee et al., Cell Death Differ. 13, 110-1122 (2006)).”

Compound: O=CC[C@@H](O)[C@H](O)[C@H](O)CO [2DG, 2-deoxyglucose]
MRLC phosphorylation (pMRLC) in S2 cells [1]: enhanced MRLC phosphorylation
Distribution of villin, CD66/CEA and CD71/transferrin markers ([2]; 50 mM 2DG, 2 hr): became dramatically polarized
Cell shape / actin cytoskeleton polarization and brush border-like structure ([2]; 50 mM 2DG, 2 hr, serum-free media): dramatic change in cell shape to have polarized actin cytoskeleton with a brush border-like structure
Activation of AMPK (pAMPK) ([3]; 50 mM 2DG, indicated time): activation of AMPK
MRLC phosphorylation (pMRLC) in LS174T cells ([3]; 2DG treatment): 2DG-induced phosphorylation of MRLC

Phosphorylation of full-length MRLC by AMPK on addition of AMP ([4]; human GST-MRLC substrate): further enhanced
Compound: Nc1ncnc2c1ncn2[C@@H]1O[C@H](COP(=O)(O)O)[C@@H](O)[C@H]1O [AMP]

Phosphorylation of MRLC by AMPK in presence of inhibitor (32P autoradiography) [4]: inhibited the phosphorylation
Drosophila AMPK phosphorylation of MRLC in presence of drug [5]: specifically inhibited
Human AMPK phosphorylation of MRLC in presence of drug [6]: specifically inhibited
MLCK phosphorylation of MRLC in presence of drug [7]: not
Compound: c1cc(-c2cnn3cc(-c4ccc(OCCN5CCCCC5)cc4)cnc23)ccn1 [Compound C]
2DG-induced actin polarization, effect of inhibitor or siRNA ([2]; 2DG 2 hr, Compound C 10 μM 30 min before 2DG, or siRNA transfection, listed as CC): inhibited; also recorded: suppressed
2DG-induced MRLC phosphorylation, effect of inhibitor ([3]; 10 μM Compound C 30 min before 50 mM 2DG): suppressed

Phosphorylation of MRLC by AMPK in presence of inhibitor (32P autoradiography) [4]: did not
Drosophila AMPK phosphorylation of MRLC in presence of drug [5]: not
MLCK phosphorylation of MRLC in presence of drug [7]: specifically inhibited
Compound: O=S(=O)(c1cccc2c(I)cccc12)N1CCCNCC1 [ML-7]
